US6518279B2, “Cyclopentanone dihydropyridine compounds useful as potassium channel openers” (Abbott Laboratories, priority 1999, dated 2003)
Converted amounts (≈) assume the structure as drawn. Read-outs that look alike come from different tables or passages of the source.

Legend:
[1] = test system: guinea-pig urinary bladder (GPB) cells; assay: Membrane hyperpolarization (MHP) assay, potassium channel opening activity, DiBAC(4)3 / FLIPR; type: cell-based; conditions: Cavia porcellus; for Emax: maximal steady-state hyperpolarization in GPB cells, relative to 10 μM P1075 (100%), read-out: Maximal Response (% P1075); for EC50: membrane hyperpolarization in GPB cells
Procedure: Compounds were evaluated for potassium channel opening activity using primary cultured guinea-pig urinary bladder (GPB) cells.
For the preparation of urinary bladder smooth muscle cells, urinary bladders were removed from male guinea-pigs (Hartley, Charles River, Wilmington, Mass.) weighing 300-400 g and placed in ice-cold Ca^2+-free Krebs solution (Composition, mM: KCl, 2.7; KH2PO4, 1.5; NaCl, 75; Na2HPO4, 9.6; Na2HPO4·7H2O, 8; MgSO4, 2; glucose, 5; HEPES, 10; pH 7.4). Cells were isolated by enzymatic dissociation as previously described with minor modifications (Klockner, U. and Isenberg, G., Pflugers Arch. (1985), 405, 329-339), hereby incorporated by reference. The bladder was cut into small sections and incubated in 5 mL of the Kreb's solution containing 1 mg/mL collagenase (Sigma, St. Louis, Mo.) and 0.2 mg/mL pronase (Calbiochem, La Jolla, Calif.) with continuous stirring in a cell incubator for 30 minutes. The mixture was then centrifuged at 1300×g for 5 minutes, and the pellet resuspended in Dulbecco's PBS (GIBCO, Gaithersburg, Md.) and recentrifuged to remove residual enzyme. The cell pellet was resuspended in 5 mL growth media (composition: Dulbecco's modified Eagle's medium supplemented with 10% fetal bovine serum, 100 units/mL penicillin, 100 units/mL streptomycin and […] amphotericin B) and further dissociated by pipetting the suspension through a flame-polished Pasteur pipette and passing it through a polypropylene mesh membrane (Spectrum, Houston, Tex.). The cell density was adjusted to 100,000 cells/mL by resuspension in growth media. Cells were plated in clear-bottomed black 96-well plates (Packard) for membrane potential studies at a density of 20,000 cells/well and maintained in a cell incubator with 90% air: 10% CO2 until confluent. Cells were confirmed to be of smooth muscle type by cytoskeletal staining using a monoclonal mouse anti human-α-smooth muscle actin (Biomeda, Foster City, Calif.)
Functional activity at potassium channels was measured by evaluating changes in membrane potential using the bis-oxonol dye DiBAC(4)3 (Molecular Probes) in a 96-well cell-based kinetic assay system, Fluorescent Imaging Plate Reader (FLIPR) (K. S. Schroeder et al., J. Biomed. Screen., v. 1 pp. 75-81 (1996)), hereby incorporated by reference. DiBAC(4)3 is an anionic potentiometric probe which partitions between cells and extracellular solution in a membrane potential-dependent manner. With increasing membrane potential (for example, K^+ depolarization), the probe further partitions into the cell; this is measured as an increase in fluorescence due to dye interaction with intracellular lipids and proteins. Conversely, decreasing membrane potential (hyperpolarization by potassium channel openers) evokes a decrease in fluorescence.
Confluent guinea-pig urinary bladder cells cultured in black clear-bottomed 96-well plates were rinsed twice with […] assay buffer (composition, mM: HEPES, 20; NaCl, 120; KCl, 2; CaCl2, 2; MgCl2, 1; glucose, 5; pH 7.4 at 25° C.) containing 5 μM DiBAC(4)3 and incubated with […] of the buffer in a cell incubator for 30 minutes at 37° C. to ensure dye distribution across the membrane. After recording the baseline fluorescence for 5 minutes, the reference or test compounds, prepared at 10 times the concentration in the assay buffer, were added directly to the wells. Changes in fluorescence were monitored for an additional 25 minutes. Hyperpolarization responses were corrected for any background noise and were normalized to the response observed with 10 μM of the reference compound P1075 (assigned as 100%), a potent opener of smooth muscle KATP channels (Quast et al., Mol. Pharmacol., v. 43 pp. 474-481 (1993)), hereby incorporated by reference.
Routinely, five concentrations of P1075 or test compounds (log or half-log dilutions) were evaluated and the maximal steady-state hyperpolarization values (expressed as % relative to P1075) plotted as a function of concentration. […]

[2] = test system: bladder contractions; assay: In-vivo bladder efficacy protocol (isovolumetric contractions model); set-up: species or system rat; conditions: dose reducing area under the curve of bladder contractions by 30%, iv, anesthetized male CD rats
Text: In-vivo bladder efficacy protocol (isovolumetric contractions model)
Male CD rats (400-450 g) were anesthetized with urethane (0.6 g/kg ip+0.6 g/kg sc). The left femoral artery and vein were cannulated with polyethylene (PE-50) tubing for the measurement of arterial pressure and test compound administration respectively. A third polyethylene catheter (PE-60) was inserted 3-4 mm into the apex of the bladder dome and secured using a 5-0 silk purse string suture. The bladder was emptied via this catheter and additionally by applying slight manual pressure on the lower abdomen. The urinary catheter was connected using a Y-tube connector to both a pressure transducer and a syringe pump. […] After the contractions stabilized to a consistent pattern, bladder pressure and arterial pressure were monitored for 20 minutes before and after a dose of the vehicle (equal parts of β-cyclodextrin stock solution (100 g β-cyclodextrin dissolved in 200 ml) and sterile water) alone. […] Mean arterial pressure and area under the curve of the bladder contractions were determined from the respective waveforms using a Modular Instruments, Inc. computerized data acquisition system and averaged over the last ten minutes of each twenty minute period. […]
Example 3, of the present invention (Table 3, FIG. 1), was dosed at 0.01, 0.1 and 1 μmol/kg. The AUC ED30 for Example 3 was determined to be 0.1 μmol/kg.

[3] = Aqueous solubility, 50 mM NaH2PO4 buffers, reverse-phase HPLC; type: physicochemical; conditions: aqueous buffer, thermodynamic from solid, shaking 60 hours, room temperature
Procedure: Aqueous solubilities were determined by shaking 60 hours at room temperature in 50 mM NaH2PO4 buffers at pH's 6.5 and 7.4. Assays were performed using reverse-phase HPLC. The solubilities are expressed in nanomoles per milliliter in Table 4.

[4] = test system: Landrace pig bladder strips; assay: Functional potassium channel opening activity in isolated bladder strips (field-stimulated twitch); conditions: for Index: ED50 of P1075 divided by ED50 of test agonist in a given tissue, averaged; for EC50: Sus scrofa, negative logarithm of ED50, Landrace pig bladder strips, read-out: pD2 (converted); for Efficacy (% P1075): maximal efficacy on the stimulated twitch, Landrace pig bladder strips
Procedure: Compounds were evaluated for functional potassium channel opening activity using tissue strips obtained from Landrace pig bladders.
Landrace pig bladders were obtained from female Landrace pigs of 9-30 kg. Landrace pigs were euthanized with an intraperitoneal injection of pentobarbital solution, Somlethal®, J. A. Webster Inc., Sterling Mass. The entire bladder was removed and immediately placed into Krebs Ringer bicarbonate solution (composition, mM: NaCl, 120; NaHCO3, 20; dextrose, 11; KCl, 4.7; CaCl2, 2.5; MgSO4, 1.5; KH2PO4, 1.2; K2EDTA, 0.01, equilibrated with 5% CO2/95% O2 pH 7.4 at 37° C.). Propranolol (0.004 mM) was included in all of the assays to block β-adrenoceptors. The trigonal and dome portions were discarded. Strips 3-5 mm wide and 20 mm long were prepared from the remaining tissue cut in a circular fashion. The mucosal layer was removed. One end was fixed to a stationary glass rod and the other to a Grass FT03 transducer at a basal preload of 1.0 gram. Two parallel platinum electrodes were included in the stationary glass rod to provide field stimulation of 0.05 Hz, 0.5 milli-seconds at 20 volts. This low frequency stimulation produced a stable twitch response of 100-500 centigrams. Tissues were allowed to equilibrate for at least 60 minutes and primed with 80 mM KCl. A control concentration response curve (cumulative) was generated for each tissue using the potassium channel opener P1075 as the control agonist. […] After a 60 minute rinsing period, a concentration response curve (cumulative) was generated for the test agonist in the same fashion as that used for the control agonist P1075. The maximal efficacy of each compounds (expressed as % relative to P1075) is reported. The amount of agent necessary to cause 50% of the agent's maximal response (ED50) was calculated using “ALLFIT” (DeLean et al., Am. J. Physiol. 235, E97 (1980)), hereby incorporated by reference, and agonist potencies were expressed as pD2 (the negative logarithm). Agonist potencies were also expressed as an index relative to P1075. The index was calculated by dividing the ED50 for P1075 by the ED50 for the test agonist in a given tissue. Each tissue was used for only one test agonist, and the indices obtained from each tissue were averaged to provide an average index of potency.

[5] = pH 6.5, 50 mM NaH2PO4 buffer, read-out: Aqueous solubility pH 6.5
[6] = pH 7.4, 50 mM NaH2PO4 buffer, read-out: Aqueous solubility pH 7.4

SMILES | Emax [1] | EC50 [1] | AUC ED30 [2] | solubility at 60 h [3, 5] | solubility at 60 h [3, 6] | Index [4] | EC50 [4] | Efficacy (% P1075) [4] | melting point | Effect on stimulated twitch ([4]; 10^−9 to 10^−5 M, cumulative, dose dependent)
O=C1CCC2=C1C(c1ccc(F)c(I)c1)C1=C(CCC1=O)N2 [Example 8, 8-(3-Iodo-4-fluorophenyl)-2,3,4,5,6,8-hexahydrodicyclopenta[b,e]pyridine-1,7-dione] | 93% | 13 nM |  |  |  |  |  |  |  | 
O=C1CCC2=C1C(c1ccc(Cl)c([N+](=O)[O-])c1)C1=C(CCC1=O)N2 [Example 3, 8-(4-Chloro-3-nitrophenyl)-2,3,4,5,6,8-hexahydrodicyclopenta[b,e]pyridine-1,7-dione] | 113% | 53 nM | 0.1 µmol/kg | 129 µM (≈ 44.5 µg/mL) | 129 µM (≈ 44.5 µg/mL) | 0.35 | 251 nM | 98 % P1075 |  | 
O=C1CCC2=C1C(c1ccc(F)c(Cl)c1)C1=C(CCC1=O)N2 [Example 5, 8-(3-Chloro-4-fluorophenyl)-2,3,4,5,6,8-hexahydrodicyclopenta[b,e]pyridine-1,7-dione] | 72% | 140 nM |  |  |  |  |  |  |  | 
O=C1CCC2=C1C(c1ccc(F)c(Br)c1)C1=C(CCC1=O)N2 [Example 1, 8-(3-Bromo-4-fluorophenyl)-2,3,4,5,6,8-hexahydrodicyclopenta[b,e]pyridine-1,7-dione] | 102% | 71 nM |  | 205 µM (≈ 74.3 µg/mL) | 227 µM (≈ 82.2 µg/mL) | 0.48 | 158 nM | 98 % P1075 |  | 
O=C1CCC2=C1C(c1cccc([N+](=O)[O-])c1)C1=C(CCC1=O)N2 [Example 4, 8-(3-Nitrophenyl)-2,3,4,5,6,8-hexahydrodicyclopenta[b,e]pyridine-1,7-dione] | 123% | 340 nM |  | 158 µM (≈ 49 µg/mL) | 164 µM (≈ 50.9 µg/mL) |  |  |  |  | 
O=C1CCC2=C1C(c1ccc3nonc3c1)C1=C(CCC1=O)N2 [Example 7, 8-(2,1,3-benzoxadiazol-5-yl)-2,3,4,5,6,8-hexahydrodicyclopenta[b,e]pyridine-1,7-dione] | 98% | 130 nM |  |  |  |  |  |  | 272 to 273 °C | 
O=C1C=CC2=C1C(c1ccc(F)c(Br)c1)C1=C(CCCC1=O)N2 (centres unmarked) [Example 9, 9-(3-bromo-4-fluorophenyl)-5,6,7,9-tetrahydro-1H-cyclopenta[b]quinoline-1,8(4H)-dione] | 100% | 63 nM |  |  |  |  |  |  |  | 
CC1=C(C(=O)O)C(c2ccc(F)c(Br)c2)C2=C(CCC2=O)N1 (centres unmarked) [Example 10, 4-(3-bromo-4-fluorophenyl)-2-methyl-5-oxo-4,5,6,7-tetrahydro-1H-cyclopenta[b]pyridine-3-carboxylic acid] | 104% | 2680 nM |  |  |  |  |  |  | 211 to 214 °C | 
O=C1CCC2=C1C(c1ccc(Cl)c(Cl)c1)C1=C(CCC1=O)N2 [Example 6, 8-(3,4-Dichlorophenyl)-2,3,4,5,6,8-hexahydrodicyclopenta[b,e]pyridine-1,7-dione] | 94% | 100 nM |  |  |  |  |  |  |  | 
CCC(C)(C)N=C(NC#N)Nc1cccnc1 [Example P1075, reference compound] |  |  |  |  |  |  |  |  |  | completely eliminated the stimulated twitch
N#Cc1cccc(C2C3=C(CCC3=O)NC3=C2C(=O)CC3)c1 [Example 2, 8-(3-Cyanophenyl)-2,3,4,5,6,8-hexahydrodicyclopenta[b,e]pyridine-1,7-dione] | 65% | 5300 nM |  | 1300 µM (≈ 377 µg/mL) | 1290 µM (≈ 375 µg/mL) | 0.017 | 6310 nM | 96 % P1075 |  | 
